Assay results from patent publication US12699083B2, “Device for continuous measurement of cardiac activity” (The Hospital for Sick Children, priority 2018, dated 2026).

Legend:
[1] = tested on: hiPSC-CM monolayers; test: Drug test on hiPSC-CM monolayers cultured on CNT-PDMS device arrays (contractile stress, beating rate, beating rhythm from CNT sensor resistance); assay type: cell-based, human
Description: Once after hiPSC-CMs were seeded, the device array 10 was placed in a humidified 37° C. incubator with 5% CO2, and the electrical signal of the CNT sensors started to be recorded. A constant voltage of 2.5 V was applied to the CNT-PDMS sensors, and sensor signals were recorded with a sampling frequency of 10 Hz.
Drug stocks were kept at 4° C. prior to use. Drug tests were performed on hiPSC-CM monolayers during culture days between 10 and 14. […] After each drug addition, cells were incubated for 10 hours for each dose before CNT sensor signals were recorded to reflect the drug effect.
Each set of data was from 3 to 6 experiment repeats and presented as values of the mean and the standard error of the mean. For differential analysis, all statistics of recorded data was processed using Student's t-test with levels of 0.05, 0.1 when they were compared to the control group. All data sets passed Shapiro-Wilk normality tests and equal variance tests.
The contractile stress generated by cardiomyocytes monolayer during synchronous systole was calculated from the experimentally measured data (i.e., CNT sensor's electrical resistance change).

[2] = tested on: single hiPSC-CM; conditions: 0.1 μM of OM, TFFB; cited from earlier work

SMILES: Cc1cccc(CCN2CCC(C(=O)c3ccc(NS(C)(=O)=O)cc3)CC2)n1 [E-4031]
- contractile stress ([1]; 0.10 μM E-4031, n=3): 2.47±0.48 kPa
- contractile stress ([1]; 0.60 μM E-4031, n=3, p>0.1): 2.39±1.38 kPa

SMILES: CC(C)NCC(O)c1ccc(O)c(O)c1 (centres unmarked) [Isoproterenol]
- beating rate increased by ([1]; 2.00 μM isoproterenol): 13.6%
- Contractile stress increased by ([1]; 2.00 μM isoproterenol vs control): 69.4%
- beating rate ([1]; 2.00 μM isoproterenol, n=3, p<0.05, control 1.17±0.068 Hz): 1.33±0.081 Hz
- contractile stress ([1]; 2.00 μM isoproterenol, n=3, control 2.34±0.093 kPa): 3.963±0.532 kPa

SMILES: COc1cc2c(cc1OC)CC(=O)N(CCCN(C)C[C@H]1Cc3cc(OC)c(OC)cc31)CC2 [Ivabradine]
- beating rate ([1]; 10.00 μM Ivabradine, n=3, p<0.05, before 1.16±0.32 Hz): 0.81±0.30 Hz
- contractile stress ([1]; 10.00 μM Ivabradine, n=3, p>0.1, before 2.26±0.43 kPa): 2.00±0.68 kPa

SMILES: COC(=O)N1CCN(Cc2cccc(NC(=O)Nc3ccc(C)nc3)c2F)CC1 [OM, Omecamtiv mecarbil]
- contractile stress increase by ([1]; 20 nM (0.02 μM) OM): 76%
- contractile stress ([1]; 20 nM (0.02 μM) OM, n=3, p<0.05, before 2.25±0.11 kPa): 3.96±0.40 kPa
- amplitude of ΔR/R0 ([1]; 20 nM OM, n=3, p<0.05, before 1.69×10^−2±8.46×10^−4): 2.98×10^−2±2.97×10^−3
- beating rate ([1]; 20 nM OM, n=3, p>0.1, control 1.11±0.25 Hz): 1.13±0.31 Hz
- Contractility generated by a single cardiomyocyte increased by [2]: 16.7%

SMILES: COc1ccc(CCN(C)CCCC(C#N)(c2ccc(OC)c(OC)c2)C(C)C)cc1OC (centres unmarked) [Verapamil]
- contractile stress ([1]; 0.20 μM Verapamil, n=3, before 2.34±9.31×10^−2 kPa): 1.15±1.31×10^−1 kPa
